Experimental data reported in US10201533B2, “Substituted quinolizine derivatives useful as HIV integrase inhibitors” (priority 2013, dated 2019).
pIC50: −log10 of the molar value. Like-named read-outs stand apart in the source and are kept apart here.

System: HIV-1 (NL4-3 strain)
Test: microbe, parasite or virus in culture
Type: cell-based
Details: MT4-GFP cells infected with HIV-1 NL4-3, IP or IC50 from 4-parameter dose response curve
[1] = Human immunodeficiency virus 1, NL43, 0% normal human serum (NHS), read-out: WILD TYPE CELL ASSAY Viking IP (0% NHS)
[2] = Human immunodeficiency virus 1, NL43, 100% normal human serum (NHS), read-out: WILD TYPE CELL ASSAY Viking IP (100% NHS)
[3] = 0% normal human serum (NHS), read-out: WILD TYPE CELL ASSAY Viking IP (0% NHS)
[4] = 100% normal human serum (NHS), read-out: WILD TYPE CELL ASSAY Viking IP (100% NHS)

SMILES	pIC50 [1]	pIC50 [2]	pIC50 [3]	pIC50 [4]
O=C(NCc1ccc(F)cc1F)c1cn2c(c(O)c1=O)C(=O)C1CCOC1C2 (stereo not drawn) [Compound 10]	7.18	–	–	–
C[C@@]12COCO[C@H]1Cn1cc(C(=O)NCc3ccc(F)cc3F)c(=O)c(O)c1C2=O [Compound 11]	8.49	6.32	–	–
C[C@@]12COCO[C@H]1Cn1cc(C(=O)NCc3ccc(F)cc3F)c(=O)c(O)c1C2=O [Compound 12]	–	–	8.59	6.23
C[C@]12COCO[C@H]1Cn1cc(C(=O)NCc3ccc(F)cc3F)c(=O)c(O)c1C2=O [Compound 13]	8.42	6.91	–	–
Cc1nc(CNC(=O)c2cn3c(c(O)c2=O)C(=O)[C@@]2(C)CCCO[C@H]2C3)sc1C [Compound 31]	7.32	< 5.08	–	–
C[C@]12CCCCO[C@H]1Cn1cc(C(=O)NCc3cccc(Cl)c3F)c(=O)c(O)c1C2=O [Compound 37]	8.82	–	–	7.10
C[C@]12CCCCO[C@H]1Cn1cc(C(=O)NCc3cccc(Cl)c3F)c(=O)c(O)c1C2=O [Compound 38]	–	–	8.74	5.80
C[C@@]12CC=CCO[C@@H]1Cn1cc(C(=O)NCc3ccc(F)cc3F)c(=O)c(O)c1C2=O [Compound 47]	8.89	–	–	7.15
C[C@@]12CC=CCO[C@@H]1Cn1cc(C(=O)NCc3ccc(F)cc3F)c(=O)c(O)c1C2=O [Compound 48]	–	–	8.77	6.04
C[C@]12CC=CCO[C@@H]1Cn1cc(C(=O)NCc3ccc(F)cc3F)c(=O)c(O)c1C2=O [Compound 49]	8.49	–	–	5.39
C[C@]12CC=CCO[C@@H]1Cn1cc(C(=O)NCc3ccc(F)cc3F)c(=O)c(O)c1C2=O [Compound 50]	–	–	8.80	6.53
COC1(C)CCn2cc(C(=O)NCc3ccc(F)cc3F)c(=O)c(O)c2C1=O (stereo not drawn) [Compound 51]	8.44	–	–	5.66
COC1(C)CCn2cc(C(=O)NCc3ccc(F)cc3F)c(=O)c(O)c2C1=O (stereo not drawn) [Compound 52]	–	–	8.47	< 5.08
COC[C@]1(C)C(=O)c2c(O)c(=O)c(C(=O)NCc3ccc(F)cc3F)cn2C[C@@H]1OC [Compound 54]	–	–	8.74	7.26
COC[C@]1(C)C(=O)c2c(O)c(=O)c(C(=O)NCc3ccc(F)cc3F)cn2C[C@@H]1OC [Compound 55]	–	–	8.09	< 5.08
COC[C@@]1(C)C(=O)c2c(O)c(=O)c(C(=O)NCc3ccc(F)cc3F)cn2C[C@@H]1OC [Compound 56]	8.47	–	–	6.47
COC[C@@]1(C)C(=O)c2c(O)c(=O)c(C(=O)NCc3ccc(F)cc3F)cn2C[C@@H]1OC [Compound 57]	–	–	8.33	5.46
COCC[C@]1(C)C(=O)c2c(O)c(=O)c(C(=O)NCc3ccc(F)cc3F)cn2C[C@@H]1OC [Compound 60]	8.54	5.65	–	–
COCC[C@@]1(C)C(=O)c2c(O)c(=O)c(C(=O)NCc3cccc(Cl)c3F)cn2C[C@@H]1OC [Compound 62]	9.05	6.32	–	–
COCC[C@@]1(C)C(=O)c2c(O)c(=O)c(C(=O)NCc3cccc(Cl)c3F)cn2C[C@@H]1OC [Compound 63]	–	–	9.05	6.60

SMILES	pIC50 [1]	pIC50 [2]	pIC50 [3]	pIC50 [4]
COCC[C@]1(C)C(=O)c2c(O)c(=O)c(C(=O)NCc3cccc(Cl)c3F)cn2C[C@@H]1OC [Compound 64]	9.05	–	–	5.53
COCC[C@]1(C)C(=O)c2c(O)c(=O)c(C(=O)NCc3cccc(Cl)c3F)cn2C[C@@H]1OC [Compound 65]	–	–	9.10	7.47
COCC[C@@]1(C)C(=O)c2c(O)c(=O)c(C(=O)NCc3ccccc3F)cn2C[C@@H]1OC [Compound 66]	8.60	6.90	–	–
COCC[C@@]1(C)C(=O)c2c(O)c(=O)c(C(=O)NCc3ccccc3F)cn2C[C@@H]1OC [Compound 67]	–	–	8.77	6.81
COCC[C@]1(C)C(=O)c2c(O)c(=O)c(C(=O)NCc3ccccc3F)cn2C[C@@H]1OC [Compound 68]	8.74	–	–	6.22
COCC[C@]1(C)C(=O)c2c(O)c(=O)c(C(=O)NCc3ccccc3F)cn2C[C@@H]1OC [Compound 69]	–	–	8.92	7.62
COCC[C@@]1(C)C(=O)c2c(O)c(=O)c(C(=O)NCc3c(F)cccc3F)cn2C[C@@H]1OC [Compound 70]	8.72	7.10	–	–
COCC[C@@]1(C)C(=O)c2c(O)c(=O)c(C(=O)NCc3c(F)cccc3F)cn2C[C@@H]1OC [Compound 71]	–	–	8.66	7.05
COCC[C@]1(C)C(=O)c2c(O)c(=O)c(C(=O)NCc3c(F)cccc3F)cn2C[C@@H]1OC [Compound 72]	–	–	8.66	6.33
COCC[C@]1(C)C(=O)c2c(O)c(=O)c(C(=O)NCc3c(F)cccc3F)cn2C[C@@H]1OC [Compound 73]	–	–	9.00	7.66
COCCC[C@]1(C)C(=O)c2c(O)c(=O)c(C(=O)NCc3ccc(F)cc3F)cn2C[C@@H]1OC [Compound 74]	–	–	8.40	6.58
COCCC[C@]1(C)C(=O)c2c(O)c(=O)c(C(=O)NCc3ccc(F)cc3F)cn2C[C@@H]1OC [Compound 75]	–	–	9.30	7.89
COCCC[C@@]1(C)C(=O)c2c(O)c(=O)c(C(=O)NCc3ccc(F)cc3F)cn2C[C@@H]1OC [Compound 76]	9.05	7.46	–	–
COCCC[C@@]1(C)C(=O)c2c(O)c(=O)c(C(=O)NCc3ccc(F)cc3F)cn2C[C@@H]1OC [Compound 77]	–	–	8.92	7.22
COCCC[C@]1(C)C(=O)c2c(O)c(=O)c(C(=O)NCc3cccc(Cl)c3F)cn2C[C@@H]1OC [Compound 78]	9.10	–	–	7.82
COCCC[C@]1(C)C(=O)c2c(O)c(=O)c(C(=O)NCc3cccc(Cl)c3F)cn2C[C@@H]1OC [Compound 79]	–	–	9.00	6.18
COCCC[C@@]1(C)C(=O)c2c(O)c(=O)c(C(=O)NCc3cccc(Cl)c3F)cn2C[C@@H]1OC [Compound 80]	8.96	–	–	7.00
COCCC[C@@]1(C)C(=O)c2c(O)c(=O)c(C(=O)NCc3cccc(Cl)c3F)cn2C[C@@H]1OC [Compound 81]	–	–	9.00	6.53
COCCC[C@]1(C)C(=O)c2c(O)c(=O)c(C(=O)NCc3c(F)cccc3F)cn2C[C@@H]1OC [Compound 82]	–	–	8.39	6.80
COCCC[C@]1(C)C(=O)c2c(O)c(=O)c(C(=O)NCc3c(F)cccc3F)cn2C[C@@H]1OC [Compound 83]	–	–	9.05	7.72

SMILES	pIC50 [1]	pIC50 [2]	pIC50 [3]	pIC50 [4]
COCCC[C@@]1(C)C(=O)c2c(O)c(=O)c(C(=O)NCc3c(F)cccc3F)cn2C[C@@H]1OC [Compound 84]	8.74	7.51	–	–
COCCC[C@]1(C)C(=O)c2c(O)c(=O)c(C(=O)NCc3ccccc3F)cn2C[C@@H]1OC [Compound 86]	–	–	8.89	7.74
COCCC[C@]1(C)C(=O)c2c(O)c(=O)c(C(=O)NCc3ccccc3F)cn2C[C@@H]1OC [Compound 87]	–	–	8.10	6.57
COCCC[C@@]1(C)C(=O)c2c(O)c(=O)c(C(=O)NCc3ccccc3F)cn2C[C@@H]1OC [Compound 88]	8.64	7.20	–	–
COCCC[C@@]1(C)C(=O)c2c(O)c(=O)c(C(=O)NCc3ccccc3F)cn2C[C@@H]1OC [Compound 89]	–	–	8.68	7.14
COCCC[C@]1(C)C(=O)c2c(O)c(=O)c(C(=O)NCc3c(F)cc(F)cc3F)cn2C[C@@H]1OC [Compound 90]	–	–	9.10	7.89
COCCC[C@]1(C)C(=O)c2c(O)c(=O)c(C(=O)NCc3c(F)cc(F)cc3F)cn2C[C@@H]1OC [Compound 91]	–	–	8.42	6.56
COCCC[C@@]1(C)C(=O)c2c(O)c(=O)c(C(=O)NCc3c(F)cc(F)cc3F)cn2C[C@@H]1OC [Compound 92]	8.89	7.23	–	–
COCCC[C@@]1(C)C(=O)c2c(O)c(=O)c(C(=O)NCc3c(F)cc(F)cc3F)cn2C[C@@H]1OC [Compound 93]	–	–	8.92	7.28
C[C@@]12CCCC[C@]1(O)Cn1cc(C(=O)NCc3ccc(F)cc3F)c(=O)c(O)c1C2=O [Compound 94]	8.74	6.55	–	–
C[C@]12CCCC[C@@]1(O)Cn1cc(C(=O)NCc3ccc(F)cc3F)c(=O)c(O)c1C2=O [Compound 95]	8.66	7.39	–	–
C[C@@]12CCCC[C@]1(O)Cn1cc(C(=O)NCc3ccc(F)c(Cl)c3)c(=O)c(O)c1C2=O [Compound 96]	8.21	< 5.08	–	–
C[C@]12CCCC[C@@]1(O)Cn1cc(C(=O)NCc3ccc(F)c(Cl)c3)c(=O)c(O)c1C2=O [Compound 97]	8.62	6.82	–	–
C[C@@]12CCCCC[C@@]1(O)Cn1cc(C(=O)NCc3ccc(F)cc3F)c(=O)c(O)c1C2=O [Compound 99]	8.43	6.21	–	–
C[C@]12CCCCC[C@@]1(O)Cn1cc(C(=O)NCc3ccc(F)cc3F)c(=O)c(O)c1C2=O [Compound 101]	8.68	6.98	–	–
CC12CCCC1(O)Cn1cc(C(=O)NCc3ccc(F)cc3F)c(=O)c(O)c1C2=O (stereo not drawn) [Compound 104]	8.44	6.46	–	–
COC12CCCC1(C)C(=O)c1c(O)c(=O)c(C(=O)NCc3ccc(F)cc3F)cn1C2 (stereo not drawn) [Compound 105]	8.46	5.64	–	–
COC12CCCC1(C)C(=O)c1c(O)c(=O)c(C(=O)NCc3ccc(F)cc3)cn1C2 (stereo not drawn) [Compound 106]	8.48	5.48	–	–
COC12CCCC1(C)C(=O)c1c(O)c(=O)c(C(=O)NCc3ccc(F)c(F)c3F)cn1C2 (stereo not drawn) [Compound 107]	8.24	5.31	–	–
